Data as given in patent US20060110456A1, “Method for biocidal and/or biostatic treatment and compositions therefor” (NATIONAL UNIVERSITY OF SINGAPORE, priority 2004, published 2006).
In brackets after ≈: the same amount, converted by molar mass. Several values for one entry are separate records, joined by “and”; a condition that tells them apart may be missing. Equal entries are not always repeated. Entries after “also recorded” stand apart in the source; their conditions may differ. Structures can show the parent of a compound that is named as a salt. Where two headings read alike, the source gives them in different places.

Tests used:
[1] = system: Balanus amphitrite cyprids; assay: whole plant or invertebrate; conditions: for IC50: Amphibalanus amphitrite, 24 h, read-out: ED50; for Prevention of settlement of barnacle cyprids: crude rank, best (1) to worst (8); for Effect on settlement of cyprids: in words
Experimental: Pharmaceuticals from the respective manufacturers were treated in the following way. A pill containing a known amount of active ingredient (as stated in product information) was ground in a mortar and pestle and a suspension of 2 mg ml^−1 generated in de-ionized water. This stock solution is stored at −20° C. in 4 ml amber screw cap vials. For the bioassays, 250 ul of stock solution is added to 10 ml of 1 um filtered seawater. This suspension was then sonicated for 10 minutes. Serial dilutions of this 50 μg ml^−1 seawater solution, or suspension, with seawater was done to generate the required range of concentrations.
This method is now standard practice for many antifouling screening of novel compounds.
Barnacle larvae from field-collected adults were reared on an algal mixture of 1:2:2 v/v of Rhodomonas salina, Tetraselmis suecica and Chaetoceros muelleri at 25° C., at approximately 5×10^5 cells per ml density. On this regime, larvae metamorphose to cyprids in 5 days.
Test solutions were made up to twice the required final concentration. 1 ml of test solution was added into each well, and cyprids were transferred into each well in 1 ml of seawater. Assays were done in triplicate. After 24 hours, larvae that had attached and metamorphosed were enumerated and the result expressed as percentage settlement. Larvae not attached were scored as not settled.
The Therapeutic Ratio, or LC50/EC50, is a way of assessing the effectiveness of the compound in relation to its toxicity. […] LC50 and EC50 estimates and the therapeutic ratio should be considered as working values providing an estimation of potency, rather than as absolutes.

[2] = system: marine bacteria (26 strains); assay: Disk inhibition assay; assay type: cell-based, marine bacteria isolated from Singapore fouling communities
Procedure, shortened: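 Tablets or capsule powders suspended in sterile water at 2 mg ml^−1 and loaded onto disks; antibiotic discs (Amp, Ery, Str, Tet) served as comparison. Disks placed on swabbed lawns on Marine Agar, incubated overnight in the dark at 30° C. Zone of clearing diameter measured by calipers; three replicates on three occasions.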

[3] = system: hard fouling (barnacles, serpulids, spirorbids); assay: Field testing of coated rods; assay type: in vivo; set-up: Total hard fouling, difference in mean cover (%), drug vs control / Barnacles, difference in mean cover (%), drug vs control: tested at 25 µg/ml of coating; Serpulids, difference in mean cover (%), drug vs control: tested at 25 µg/ml of coating mix; conditions: for Overall performance in field assay: crude rank, best (1) to worst (8); for Barnacles, difference in mean cover (%), drug vs VC50 / Serpulids, difference in mean cover (%), drug vs VC50 / Spirorbids, difference in mean cover (%), drug vs VC50 / Total hard fouling, difference in mean cover (%), drug vs VC50: drug + VC50 rods vs VC50 control; for Barnacles, difference in mean cover (%), drug vs control / Serpulids, difference in mean cover (%), drug vs control / Spirorbids, difference in mean cover (%), drug vs control / Total hard fouling, difference in mean cover (%), drug vs control: drug + VC50 rods vs uncoated blank control; for Barnacles Mean cover (%) / Serpulids Mean cover (%) / Spirorbids Mean cover (%) / Total hard fouling Mean cover (%): rods coated with drug + VC50, field test; for Total hard fouling Mean cover (%): percentage cover within 6 mm×50 mm transect
Experimental: Fouling on rods occurs more rapidly than on flat panels, enabling rapid assessment of the performance of coatings.
6 mm diameter glass rods were cut to 150 mm length and prepared prior to coating by baking in a furnace at 150° C. for 24 hours and then cooling in a dessicator.
All pharmaceuticals were obtained in commercially available form. All tablets were reduced to fine powder with a mortar and pestle, and capsules were opened to extract the contents. The amount of drug powder required to attain the desired concentrations for all tests was calculated from product dosage information and then measured by weight on a high-resolution electronic balance. This was added to the coating and mixed thoroughly prior to application to obtain the concentration of 25 ug active ingredient per ml of coating mix.
The commercial antifouling product used to benchmark field experiments was VC Offshore with Teflon® manufactured by International Coatings.
For our experiments, a reduced copper coating (“VC50”) was prepared by mixing approximately 20 g of #YBA779 into 100 ml of #YBA707. The prepared coating was then allowed to stand so that bubbles from the mixing process dissipated. 15 ml centrifuge tubes were filled with 10 mls of prepared coating. Prepared glass rods were then immersed in the coating to a height of 100 mm and then suspended on a frame to air dry until coating cured.
Five replicate rods were tested for every experimental treatment, including controls. Two sets of controls were used, an uncoated blank control and a VC50 control without pharmaceutical additives. Rod were randomly arrayed on plastic vexar mesh attached to PVC frames and suspended at a depth of 10 cm from the water surface. […] Rods were examined visually weekly for the duration of testing, which typically lasts between 6 to 10 weeks. All fouling was scored as percentage cover of each category within a 6 mm×50 mm transect on each rod.

[4] = crude rank, best (1) to worst (8)
[5] = coated rods, 25 ug active ingredient per ml of VC50 coating
[6] = drug at 25 ug per ml of VC50 coating, in words

Row | Compound | IC50 [1] [µg/mL] | Prevention of settlement of barnacle cyprids [1] | Antibiotic activity against marine bacteria ([2]; 25 or 50 μg per disc, in words) | Antibiotic activity against marine bacteria [2, 4] | Total hard fouling, mean cover [3, 5] [%] | Performance against barnacles ([3]; coated rods, in words) | Overall performance in field assay [3] | Barnacles, difference in mean cover (%), drug vs VC50 [3] [%] | Serpulids, difference in mean cover (%), drug vs VC50 [3] [%] | Spirorbids, difference in mean cover (%), drug vs VC50 [3] [%] | Total hard fouling, difference in mean cover (%), drug vs VC50 [3] [%] | Barnacles, difference in mean cover (%), drug vs control [3] [%] | Serpulids, difference in mean cover (%), drug vs control [3] [%] | Spirorbids, difference in mean cover (%), drug vs control [3] | Total hard fouling, difference in mean cover (%), drug vs control [3] [%] | Effect of addition of drug on antifouling performance of VC50 coating (total hard fouling) [3, 6] | Barnacles Mean cover (%) [3] [%] | Serpulids Mean cover (%) [3] [%] | Spirorbids Mean cover (%) [3] [%] | Total hard fouling Mean cover (%) [3] [%] | also measured
1 | CCCCCCCCCC(=O)OC1(c2ccc(Cl)cc2)CCN(CCCC(=O)c2ccc(F)cc2)CC1 [HDL, haloperidol decanoate] | 0.119 (≈ 0.225 µM) | 3 | did not have any appreciable antibiotic activity against marine bacteria | 8 | 30 | did not significantly reduce barnacle cover compared to VC50 controls | 4 | −6.7 | −1.67 | −16.66 | −25 | −69.7 | −3.33 | +5% | −68 | significantly less on VC50+HDL treated rods; also recorded: significantly improved the performance of VC50 coating | 23.3 | 0 | 6.67 | 30 | Performance against serpulid polychaetes ([3]; coated rods, in words): completely excluded; Performance against spirorbid polychaetes ([3]; coated rods, in words): exclude spirorbid settlement; also recorded: significantly improve the performance of VC50 against spirorbid polychaetes
2 | CN(C)C(=O)C(CCN1CCC(O)(c2ccc(Cl)cc2)CC1)(c1ccccc1)c1ccccc1 [IMD, Loperamide hydrochloride] | > 5 | 8 | did not have any appreciable antibiotic activity against marine bacteria | 8 | 0.67 | significantly less than on both controls | 1 |  |  |  |  |  |  |  |  |  |  |  |  |  | Effect on settlement of cyprids [1]: not effective against cyprids; Reduction of total hard fouling cover compared to blank controls ([3]; coated rods): 97.3%; Barnacles, mean cover [3, 5]: 0.67%; Serpulids, mean cover [3, 5]: 0%; Spirorbids, mean cover [3, 5]: 0%; Performance against spirorbid polychaetes ([3]; coated rods, in words, hydrochloride): exclude spirorbid settlement; also recorded: no settlement by spirorbids; Reduction of total hard fouling cover compared to VC50 alone ([3]; drug at 25 ug per ml of VC50 coating): 54.3%; Effect of addition of drug on antifouling performance of VC50 coating (total hard fouling) ([3]; drug at 25 ug per ml of VC50 coating, in words, hydrochloride): significantly increased the fouling resistance of the base coating; also recorded: significantly improved the performance of VC50 coating; Barnacles, difference in mean cover vs VC50 ([3]; vs VC50 control): −29.3%; Serpulids, difference in mean cover vs VC50 ([3]; vs VC50 control): −1.67%; Spirorbids, difference in mean cover vs VC50 ([3]; vs VC50 control): −23.33%; Total hard fouling, difference in mean cover vs VC50 ([3]; vs VC50 control): −54.3%; Barnacles, difference in mean cover vs control ([3]; vs uncoated blank control): −92.3%; Serpulids, difference in mean cover vs control ([3]; vs uncoated blank control): −3.33%; Spirorbids, difference in mean cover vs control ([3]; vs uncoated blank control): −1.67%; Total hard fouling, difference in mean cover vs control ([3]; vs uncoated blank control): −97.3%
3 | Cc1cc2c(s1)Nc1ccccc1N=C2N1CCN(C)CC1 [ZPX, olanzapine] | 0.00231 (≈ 0.00739 µM) | 1 |  |  | 17.3 | only significant for barnacles | 3 | −23.3 | −1.67 | −12.66 | −37.7 | −86.3 | −3.33 | +9% | −80.7 | significantly improved performance against total hard fouling; also recorded: significantly improved the performance of VC50 coating | 6.67 | 0 | 10.67 | 17.3 | Effect on settlement of cyprids [1]: at concentrations less than 1 ug ml^−1, the cyprids were not killed but were not able to settle; also recorded: prevented the settlement of cyprids; Mortality of cyprids ([1]; settlement bioassay wells): not very different from the control; Antibiotic activity against marine bacteria [2]: did not have any appreciable antibiotic activity against marine bacteria and 8
